# According to ChEMBL document CHEMBL1124911, “Inhibition of human leukocyte elastase. 2. Inhibition by substituted cephalosporin esters and amides” (J Med Chem, 1990):
# pIC50: −log10 of the molar value.
# Experiments:
# Neutrophil elastase = molecular target: T1, Neutrophil elastase (Homo sapiens, UniProt P08246); test: In vitro inhibition of Human Leukocyte Elastase (HLE)
# T1 sequence (P08246 whole entry): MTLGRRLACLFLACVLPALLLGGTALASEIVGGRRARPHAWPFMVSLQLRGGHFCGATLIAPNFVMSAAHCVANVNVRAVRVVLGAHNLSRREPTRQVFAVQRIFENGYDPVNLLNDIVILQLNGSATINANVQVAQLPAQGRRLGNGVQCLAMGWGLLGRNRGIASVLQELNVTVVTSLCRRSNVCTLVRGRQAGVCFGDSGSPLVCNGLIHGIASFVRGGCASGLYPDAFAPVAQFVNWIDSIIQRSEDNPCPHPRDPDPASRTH
# [1] = molecular target: T2, Neutrophil elastase (Homo sapiens) (UniProt P08246); test: Second-order rate constant for time-dependent inactivation of Human Leukocyte Elastase was determined; G means no time-dependent inhibition was observed
# T2 sequence (whole entry): T1 sequence (P08246 whole entry)
# [2] = molecular target: T2, Neutrophil elastase (Homo sapiens)
# Description: Second-order rate constant for time-dependent inactivation of leukocyte elastase
# [3] = molecular target: T2, Neutrophil elastase (Homo sapiens); remark: listed apart in the source
# [4] = molecular target: T2, Neutrophil elastase (Homo sapiens); remark: listed apart in the source
# Description: Second-order rate constant for time-dependent inactivation of Human Leukocyte Elastase was determined; H means an inverse progress curve was observed
Structure (SMILES),pIC50 (Neutrophil elastase),K obs / 1 [2] [M⁻¹ s⁻¹],other results
COC(=O)CN(C)C(=O)C1=C(COC(C)=O)CS(=O)(=O)[C@@H]2[C@@H](OC)C(=O)N12,,9500,
CO[C@H]1C(=O)N2C(C(=O)OC(C)(C)C)=C(COC(C)=O)CS(=O)(=O)[C@H]12,,,K obs / 1 [3]: 16000 M⁻¹ s⁻¹
CO[C@H]1C(=O)N2C(C(=O)N(C)CC(=O)OC(C)(C)C)=C(COC(C)=O)CS(=O)(=O)[C@H]12,6.70,,
CO[C@H]1C(=O)N2C(C(=O)N(C)CC(=O)O)=C(COC(C)=O)CS(=O)(=O)[C@H]12,5.30,300,
COc1ccc(COC(=O)C2=C(COC(C)=O)CS(=O)(=O)[C@@H]3[C@@H](OC)C(=O)N23)cc1,7.00,,K obs / 1 [4]: Inverse progress curve was observed
CO[C@H]1C(=O)N2C(C(=O)O)=C(COC(C)=O)CS(=O)(=O)[C@H]12,< 4.30,,
CO[C@H]1C(=O)N2C(C(=O)NCC(=O)O)=C(COC(C)=O)CS(=O)(=O)[C@H]12,< 4.30,,
CCCC[C@H](NC(=O)OC(C)(C)C)[C@@H](O)C(=O)O[C@H]1C[C@@]2(O)[C@@H](OC(=O)c3ccccc3)[C@@H]3[C@]4(OC(C)=O)CO[C@@H]4C[C@H](O)[C@@]3(C)[C@@H](O)[C@H](OC(C)=O)C(=C1C)C2(C)C,,900,
CO[C@H]1C(=O)N2C(C(=O)N(C)Cc3ccc(C(=O)O)cc3)=C(COC(C)=O)CS(=O)(=O)[C@H]12,6.40,8600,

# Now from value to compound, other results behind:
pIC50 (Neutrophil elastase),K obs / 1 [2] [M⁻¹ s⁻¹],Structure (SMILES),other results
6.40,,CO[C@H]1C(=O)N2C(C(=O)OCc3ccc(C(=O)OC(C)(C)C)cc3)=C(COC(C)=O)CS(=O)(=O)[C@H]12,K obs / 1 [1]: No time-dependent inhibition was observed
7.15,,CO[C@H]1C(=O)N2C(C(=O)OCc3ccccc3)=C(COC(C)=O)CS(=O)(=O)[C@H]12,K obs / 1 [1]: No time-dependent inhibition was observed
,6200,COC(=O)CCN(C)C(=O)C1=C(COC(C)=O)CS(=O)(=O)[C@@H]2[C@@H](OC)C(=O)N12,
7.00,,CCOC(=O)COC(=O)C1=C(COC(C)=O)CS(=O)(=O)[C@@H]2[C@@H](OC)C(=O)N12,
5.70,3900,CO[C@H]1C(=O)N2C(C(=O)N(C)C)=C(COC(C)=O)CS(=O)(=O)[C@H]12,
6.10,2200,CO[C@H]1C(=O)N2C(C(=O)NC(C)(C)C)=C(COC(C)=O)CS(=O)(=O)[C@H]12,
,500,CO[C@H]1C(=O)N2C(C(=O)N(C)CCC(=O)O)=C(COC(C)=O)CS(=O)(=O)[C@H]12,
,35000,CO[C@H]1C(=O)N2C(C(=O)N3CCOCC3)=C(COC(C)=O)CS(=O)(=O)[C@H]12,
,27000,CO[C@H]1C(=O)N2C(C(=O)N3CCCC3)=C(COC(C)=O)CS(=O)(=O)[C@H]12,
6.70,,COC(=O)C1=C(COC(C)=O)CS(=O)(=O)[C@@H]2[C@@H](OC)C(=O)N12,K obs / 1 [3]: 17000 M⁻¹ s⁻¹
< 4.30,,CO[C@H]1C(=O)N2C(C(=O)NCCC(=O)O)=C(COC(C)=O)CS(=O)(=O)[C@H]12,
6.70,,CO[C@H]1C(=O)N2C(C(=O)OCc3ccc(C(C)(C)C)cc3)=C(COC(C)=O)CS(=O)(=O)[C@H]12,K obs / 1 [4]: Inverse progress curve was observed
